Reference: patent US7339042B2, “Gene delivery to tumors” (University of Florida Research Foundation, Inc., priority 2003, dated 2008)
Entries after “also recorded” stand apart in the source; their conditions may differ. No end group written: not given here.

Key:
[1] = tested on: HUVEC attachment to vitronectin coated plates; conditions: read-out: IC50 for inhibiting HUVEC attachment to vitronectin coated plates; cited from earlier work
RG2 cells [2] = assay: Fluorescein peptide uptake by RG2 cells, fluorescence microscopy; format: cell-based, rat
Procedure: (§1) For fluorescent microscopy studies cells were plated on 2 chamber cover slips at a density of 1×10^4 cells/chamber. Cells were incubated with […] peptide for 30 minutes in completed media, washed with PBS 3× and imaged using a Nikon Axiophot inverted fluorescent microscope. Images were taken using a Spot CCD camera.
Similar observations were obtained for all the peptides in another human glioblastoma cell line, T98G.

[3] = tested on: endothelial cells and smooth muscle cells of rat cerebral arteries; assay: Uptake of fluorescent peptides by pressure-mounted rat cerebral arteries; format: cell-based
Procedure: Tat-P16 peptides were prepared and labeled with fluorescein for use in uptake studies using intact blood vessels isolated from rat brain. Blood vessels were dissected from rat brain and stabilized in an isolated perfusion system in which vessels were attached on either end to catheters and placed under physiological pressure. Following a 10 minute perfusion of the isolated vessels with flurorescent Tat-P16 peptide (1 μM), vessels were examined for uptake of the peptides. […] Within the endothelial cells, the labeled peptides were seen to be localized to the cell nuclei, further confirming uptake of the peptides by the cells.
The peptides are fairly labile in the media and approximately 50% are degraded upon incubation at 37° C. in complete media (qualitative analysis by PAGE) after 1 hour. […] Uptake of these peptides and cell killing activity was tested in a 3 dimensional organ culture using rat cerebral arteries cultured under physiological pressure and flow. A segment of the rat cerebral artery is surgically removed and placed in ringer's solution. Using a surgical stereoscope, the blood vessel is tied at either end to two cannulas on a teflon stage. Ringer's solution is perfused through the lumen of the vessel at a constant rate that maintains physiologic hydrostatic pressure. The fluorescent peptide was introduced intraluminally by perfusing a 1 μM solution of peptide through the lumen over a 10 minute period.
Rats were anesthetized by intraperitoneal injection of pentobarbital sodium (160 mg/kg) and killed by decapitation. The brain was removed and placed in an ice-cold oxygenated physiological cerebrospinal fluid (PCSF, see below for composition). Cerebellar arteries were isolated and mounted in an arteriograph as described previously (Knot and Nelson 1998). The arteriograph was placed on an inverted microscope and the artery was visualized with a monochrome CCD camera coupled to a calibrated video caliper system to measure arterial diameter. The arteries were slowly pressurized to 70 mmHg under no flow conditions using a pressure servo-null system (Living Systems Inc., Burlington Vt.), and warmed to 37° C. while being continuously superfused (5 ml/min) with PCSF bubbled with 21% O2, 5% CO2, 74% N2 (pH 7.35-7.40 in the bath). […] Myogenic tone is calculated by the following equation: Myogenic tone=(Dp−Da)/Dp×100
(§2) In some experiments, the arterial segments were denuded of endothelium by passing an air bubble through the lumen, thus exposing the smooth muscle cells to luminally administered peptides. Constriction to pressure and 60 mM KCl and dilation of arteries with myogenic tone to 16 mM KCl were used as benchmarks of functional arteries. Peptide containing PCSF was perfused intraluminally at an inlet pressure of 70 mmHg with the outlet open, for 20 min and then perfused with normal PCSF. This procedure ensures a 20 min of exposure of the arteries to the peptide.

rat cerebral arteries [4] = assay: Vasodilation and vasoconstriction response of rat cerebral arteries before and after peptide; format: cell-based; conditions: after vs before intraluminal peptide
Procedure: The blood vessels were put in culture described above and perfused with buffer of the same composition as cerebrospinal fluid. Vessel diameter was measured before and after administration of each reagent. 3 μM of each peptide was perfused through for 10 minutes followed by a 10 minute wash through. Vasoconstriction and vasodilation were determined for each vessel before peptide was applied. Perfusion was continued until the vessels relaxed to their original diamter (approximately 30 minutes). The vasoconstriction and vasodilation reponse was remeasured after the 10 minute wash through. The 60 mM KCl and 16 mM KCl conditions are […], respectively. Histamine and Bradykinin are endothelial cell vasodilators.
as §2
(§3) Effect of peptide on endothelial and smooth muscle function was evaluated by histamine (0.3 and 1 μM) and bradykinin (0.5 μM) (endothelium-dependent vasodilators) and 16 and 60 mM KCl (results in dilation and constriction of arteries by hyperpolarizing and depolarizing smooth muscle, respectively). These drug solutions were added to the superfusate and applied to the arteries extraluminally for 10 to 15 min before and after intraluminal perfusion with peptides. Effects of these agents were expressed as percent change in myogenic tone (decrease for dilators and increase for constrictors). Experiments were concluded by exposing the arteries to calcium free PCSF to obtain the passive diameter. Cell viability was determined by adding H3334 (Hoechst viability stain, final concentration 1 μM) and propidium iodide (final concentration 1 μM) to the arteriograph after the peptide incubation. Fluorescent micrographs were taken of the vessels after incubation with peptides and following addition of the vital stains using Till Photonics imaging system (Martinsried, Germany).

rat cerebral arteries [5] = assay: Cell viability staining of arteries (propidium iodide, H3334) after peptide; format: cell-based; conditions: after treatment with peptide
Procedure: No PI statined smooth muscle cell nuclei were observed.
as §3

[6] = tested on: T98G cells, RG2 cells and A172 cells; assay: Cell viability assay of chimeric peptides in three cell types; format: cell-based, human and rat; conditions: fixed concentration, 30-minute incubation
Procedure: Synthetic peptides labeled with an N-terminal fluorescein were synthesized to test the ability of a shuttle domain to enter brain tumor and endothelial cells. The amino acid sequences for the shuttle domain was derived from HIV Tat amino acid 47 to 56 ([…] SEQ ID NO:23)(Robert-Guroff et al., J. Virol. 64:3391-3398, 1990) to which AGGG was added to the N-terminus, and the antennapedia homeodomain from drosophila (ANT) ([…] SEQ ID NO:24) (Astriab-Fisher et al., Pharm. Res., 19:744-754, 2002). A synthetic peptide (PTD-5) reported to have similar properties as Tat and ANT was also tested (Mai J. C. et al, Cancer Res. 2001; 61: 7709-7712.). Uptake was tested in two human glioblastoma cell lines and a rat glioma cell line, the latter being used for the rat brain tumor model. A 1 μM concentration of each peptide was added to 10^6 cells in a 6 well plate. […] The Tat and ANT peptides were doubled in length by the addition of […] (SEQ ID NO: 25), amino acids 42 to 55 from a human cyclin-dependent kinase inhibitor 2A (melanoma, p16, inhibits CDK4) (CDKI), transcript variant 4, mRNA (accession no. NM_058195). […]
The cytotoxicity of the chimeric peptides was characterized using a cell viability assay. […] After a 30-minute incubation, cells were removed from the plate, stained with propidium iodide and the % positive cells were determined by FACS (fluorescent activated cell scanning). […]

[7] = tested on: two human glioblastoma cell lines and a rat glioma cell line; assay: Fluorescein peptide uptake, fluorescence microscopy, three glioma lines; format: cell-based; conditions: 1 μM peptide, 10^6 cells, all three cell types
Procedure: Synthetic peptides labeled with an N-terminal fluorescein were synthesized to test the ability of a shuttle domain to enter brain tumor and endothelial cells. The amino acid sequences for the shuttle domain was derived from HIV Tat amino acid 47 to 56 ([…] SEQ ID NO:23)(Robert-Guroff et al., J. Virol. 64:3391-3398, 1990) to which AGGG was added to the N-terminus, and the antennapedia homeodomain from drosophila (ANT) ([…] SEQ ID NO:24) (Astriab-Fisher et al., Pharm. Res., 19:744-754, 2002). A synthetic peptide (PTD-5) reported to have similar properties as Tat and ANT was also tested (Mai J. C. et al, Cancer Res. 2001; 61: 7709-7712.). Uptake was tested in two human glioblastoma cell lines and a rat glioma cell line, the latter being used for the rat brain tumor model. A 1 μM concentration of each peptide was added to 10^6 cells in a 6 well plate. […] The Tat and ANT peptides were doubled in length by the addition of […] (SEQ ID NO: 25), amino acids 42 to 55 from a human cyclin-dependent kinase inhibitor 2A (melanoma, p16, inhibits CDK4) (CDKI), transcript variant 4, mRNA (accession no. NM_058195). This domain binds MDM2 and inhibit ubiquination of P53, a tumor suppressor protein. […] Only the combination of Tat-CDKI was toxic to the cells, 65% killing for T98G and 61% killing for RG2 cells. […] Similar results were obtained with A172 cells. […]

A172 cells = assay: Fluorescein peptide uptake by A172 cells, fluorescence microscopy; format: cell-based, human
Procedure: as §1
Synthetic peptides derived from HIV Tat (Tat) and the Drosophila antennaepedia homeodomain (ANT) were tested for cell uptake by A172 cells (human glioblastomas). The peptides were labeled at the N-terminus with fluorescein. Cells were incubated with 30 uM peptide at 37° C. in serum containing media. Fluorescent micrographs were taken after 1 hr incubation at 37° C. […] The size of the peptide was increased by added an Mdm-2 binding domain derived from P14ARF. This domain was added to the C-terminus of the Tat and ANT peptides. The P14ARF domain was also placed at the N-terminus followed by the Tat peptide. All the peptides were labeled at the N-terminus with fluorescein and cell incubations similar to the Tat and ANT peptides were tested for cellular uptake. […] Both the bright field and fluorescent micrographs show altered cell morphology.

[8] = tested on: endothelial cells and smooth muscle cells of rat cerebral arteries; assay: Uptake of fluorescent peptides by pressure-mounted rat cerebral arteries; format: cell-based; conditions: extraluminal addition
HIV = conditions: cited from earlier work
Flk-1 = Flk-1 (Homo sapiens, UniProt P35968); conditions: cited from earlier work
RG2 cells [9] = assay: Fusion peptide cell killing, propidium iodide/FACS viability, RG2 cells; format: cell-based, rat
Procedure: (§4) Other experiments were performed using two glioma cell lines, i.e., T98G and RG2. 1×10^6 cells per well were incubated in 6-well plates with peptides in complete media for 1 hr. Cells were removed from the plate using a cell stripper and the percentage of viable cells was determined by staining with propidium iodide and analyzing by fluorescence activated cell sorting (FACS).
There are 4 conserved amino acid differences between the rat and human CDKI sequence. Both sequences were attached to Tat and tested for cell killing activity in the rat glioma RG2 cells. Also the effect of orientation of the Tat and CDKI domains were tested. RG2 cells were plated on 6 well plates at approximately 70% confluency. Each of the peptides was added to the wells with increasing concentration. After 1 hr, cells were removed from the plates, washed 2× with PBS, stained with propidium iodide and analyzed by FACS for viable cells.
(§5) Cell viability studies were performed by plating the cells under the same conditions as the uptake studies. Cells were incubated with fluorescent peptides for 1 hr at 37° C. The cells were removed from the plate using cell striper. They were labeled with propidium iodide and fluorescein-AM. Percent PI positive cells were determined by FACS.
The cytotoxicity of the chimeric peptides was characterized using a cell viability assay. Peptides were added to cells at a fixed concentration. After a 30-minute incubation, cells were removed from the plate, stained with propidium iodide and the % positive cells were determined by FACS (fluorescent activated cell scanning). The test conditions were Tat, ANT, Tat-P14ARF, ANT-P14ARF and P14ARF. T98G cells were tested along with RG2 cells and A172 cells.

T98G cells = assay: Fusion peptide cell killing, propidium iodide/FACS viability, T98G cells; format: cell-based, human; conditions: 10 μM peptide, 1 hr
Procedure: as §4, §5

[10] = intraluminal perfusion of fluorescent peptide

Sequence of Flk-1 (P35968 20-1356, species assumed): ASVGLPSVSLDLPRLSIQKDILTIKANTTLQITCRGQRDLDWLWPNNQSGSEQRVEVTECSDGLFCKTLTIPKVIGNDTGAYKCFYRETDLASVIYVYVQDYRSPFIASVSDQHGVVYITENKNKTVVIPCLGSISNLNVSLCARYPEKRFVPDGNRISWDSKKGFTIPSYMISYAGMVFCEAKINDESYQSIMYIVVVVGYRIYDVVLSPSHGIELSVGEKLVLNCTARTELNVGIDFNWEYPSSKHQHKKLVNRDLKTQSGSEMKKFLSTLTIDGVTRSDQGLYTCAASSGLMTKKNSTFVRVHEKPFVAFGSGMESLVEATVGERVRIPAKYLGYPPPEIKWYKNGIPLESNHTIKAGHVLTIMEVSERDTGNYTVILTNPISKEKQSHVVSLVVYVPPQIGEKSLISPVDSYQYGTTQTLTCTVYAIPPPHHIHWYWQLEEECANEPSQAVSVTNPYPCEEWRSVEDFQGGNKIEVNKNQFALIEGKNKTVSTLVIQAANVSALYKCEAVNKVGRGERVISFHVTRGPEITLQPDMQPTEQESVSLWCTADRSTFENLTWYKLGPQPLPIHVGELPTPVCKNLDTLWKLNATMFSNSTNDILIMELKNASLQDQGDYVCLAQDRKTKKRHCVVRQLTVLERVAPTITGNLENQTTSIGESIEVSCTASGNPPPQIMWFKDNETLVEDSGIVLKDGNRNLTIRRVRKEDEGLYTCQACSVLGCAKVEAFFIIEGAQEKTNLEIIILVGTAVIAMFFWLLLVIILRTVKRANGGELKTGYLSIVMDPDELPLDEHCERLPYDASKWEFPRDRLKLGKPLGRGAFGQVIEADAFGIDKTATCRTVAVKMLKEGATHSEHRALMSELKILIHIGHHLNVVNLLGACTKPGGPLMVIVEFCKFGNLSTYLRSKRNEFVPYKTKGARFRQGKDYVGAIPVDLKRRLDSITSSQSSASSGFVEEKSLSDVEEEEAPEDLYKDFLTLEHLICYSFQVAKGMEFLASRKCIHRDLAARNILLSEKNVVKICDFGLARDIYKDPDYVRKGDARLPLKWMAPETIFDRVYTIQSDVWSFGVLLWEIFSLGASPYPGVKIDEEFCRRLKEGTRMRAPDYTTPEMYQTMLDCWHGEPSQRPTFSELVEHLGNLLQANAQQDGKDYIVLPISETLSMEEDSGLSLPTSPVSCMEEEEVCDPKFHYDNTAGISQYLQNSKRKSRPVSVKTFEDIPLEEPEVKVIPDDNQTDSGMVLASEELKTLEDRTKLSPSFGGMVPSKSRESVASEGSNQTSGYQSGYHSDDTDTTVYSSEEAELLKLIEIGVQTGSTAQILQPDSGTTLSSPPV

Substance: CDMRGDMFC [αvβ3 integrin binding peptide]
- IC50 [1]: 10 µM

Substance: RQIKIWFQNRRMKWKK-MVRRFLVTLRIRRA [ANT-P14ARF]
- staining pattern (cell uptake) (RG2 cells [2]): intracellular punctate staining

Substance: AGGGYGRKKRRQRRRMGRRFVVTVRIRRT [Tat-rat P14ARF]
- morphology of the endothelial cells ([3]; after intraluminal exposure): morphology of the endothelial cells was altered
- labeling/uptake by endothelial cells [3, 10]: restriction of labeling to the endothelial cells
- endothelium-dependent dilation to histamine and bradykinin (rat cerebral arteries [4]): inhibition of vasodilation
- smooth muscle response to 60 and 16 mM KCl (rat cerebral arteries [4]): no effect
- propidium iodide staining of blood vessels (rat cerebral arteries [5]): only the endothelial cells were affected

Substance: RQIKIWFQNRRMKWKK [ANT, membrane permeability domain alone, control peptide]
- cells killed [6]: No impact on cell viability
- fluorescence labeling of cells (uptake) [7]: stained the cytoplasm
- fluorescent intensity (degree of cell uptake) (A172 cells; 30 uM peptide, 1 hr, 37° C.): greater for the ANT peptide than the Tat peptide
- labeling/uptake by endothelial cells [3, 10]: restriction of labeling to the endothelial cells; also recorded: cytoplasmic staining of the endothelial cells
- labeling/uptake by smooth muscle cells [3, 10]: did not label the smooth muscle cells
- labeling of smooth muscle cells [8]: able to label the smooth muscle cells

Substance: RRNalCYCitKdEPYRCitCR [CXCR4 peptide]
- IC50 for inhibiting HIV (HIV): in the nM range

Substance: HTMYYHHYQHHL [Flk-1 binding peptide]
- IC50 (Flk-1): ~100 µM

Substance: MVRRFLVTLRIRRAAGGGYGRKKRRQRRR [P14ARF-Tat]
- IC50 (RG2 cells [9]; dose response 1 μM to 10 μM): 3 µM
- staining pattern (cell uptake) (A172 cells; 30 uM peptide, 1 hr, 37° C., serum containing media): nuclear staining
- cell density (A172 cells; A172 cells, 1-hour incubation): reduced cell density
- cell density (RG2 cells [2]): reduced cell density compared to TatP14ARF
- staining pattern (cell uptake) (RG2 cells [2]): nuclear staining

Substance: MVRRFLVTLRIRRA [P14ARF]
- % killing (toxicity) (T98G cells): no toxicity
- % killing (toxicity) (RG2 cells [9]; 10 μM peptide, 1 hr): 22%
- reduction in cell viability (RG2 cells [9]; 30-minute incubation): 22%
- endothelium-dependent dilation to histamine and bradykinin (rat cerebral arteries [4]): responsive to all stimuli
- smooth muscle response to 60 and 16 mM KCl (rat cerebral arteries [4]): responsive to all stimuli
